Like-named read-outs stand apart in the source and are kept apart here.
How the values were obtained:
Type in all cases: cell-based
[1] = system: Colo205 human colon adenocarcinoma cell line (doxorubicin-sensitive); experiment: MTT assay, cytotoxicity at pH 6 and 7
Protocol: (§1) All cell culture reagents were obtained from Sigma-Aldrich (Merck KGaA, Darmstadt, Germany) and plasticware from Sarstedt (Nümbrecht, Germany). Human colonic adenocarcinoma cell lines Colo205 (catalog number: ATCC-CCL-222) and its doxorubicin-resistant counterpart Colo320 (catalog number: ATCC-CCL-220.1) were purchased from LGC Promochem (Teddington, UK). The cells were cultured in RPMI 1640 medium supplemented with 10% heat-inactivated fetal bovine serum, 2 mM L-glutamine, 1 mM sodium pyruvate, and 100 mM HEPES buffer, adjusting the pH to 6.0 or 7.0. The cells were incubated at 37 °C in a 5% CO2–95% air atmosphere. The semiadherent human colon cancer cells were detached with Trypsin-Versene solution for 5 min at 37 °C.
(§2) The solutions were freshly prepared prior to measurements (see Section 2.1). […] Firstly, these samples were diluted in complete culture medium; then, two-fold serial dilutions of the compounds were prepared in 100 μL of RPMI 1640, horizontally. The semiadherent colonic adenocarcinoma cells were treated with Trypsin-Versene solution. They were adjusted to a density of 1 × 10^4 cells in 100 μL of RPMI 1640 medium and were added to each well, with the exception of the medium control wells. The final volume of the wells containing compounds and cells was 200 μL. Samples were triplicated. The pH of the medium was adjusted to 6.0 or 7.0.
(§3) The culture plates were incubated at 37 °C for 72 h; at the end of the incubation period, 20 μL of MTT solution (from a stock solution of 5 mg/mL) was added to each well. After incubation at 37 °C for 4 h, 100 μL of SDS solution (10% in 0.01 M HCI) was added to each well, and the plates were further incubated at 37 °C overnight. Cell growth was determined by measuring the optical density (OD) at 540/630 nm with a Multiscan EX ELISA reader (Thermo Labsystems, Cheshire, WA, USA). […] Curves were fitted using GraphPad Prism software (2022, version 9.4.1, Graphpad Software (LLC) d.b.a Dotmatics, San Diego, CA, USA) using the sigmoidal dose–response model (comparing variable and fixed slopes).
(§4) The pH-dependent solution speciation of the selected mixed-ligand complexes is an important feature in the hypothesized mechanism of action, and the modeling of acidosis is necessary for the in vitro anticancer assays. In order to find out the cytotoxicity difference based on the pH of the medium, cytotoxic activity was determined at pH 6 and 7 by MTT assay in two human colon adenocarcinoma cell lines (doxorubicin-sensitive Colo205 and doxorubicin-resistant Colo320). […] The mixed-ligand complexes were prepared prior to the measurements, as was already described in Section 2.1. With this method, the effect of the different counter ions could be avoided, and a more adequate comparison of the mixed-ligand complexes could be conducted.

[2] = system: Colo320 human colon adenocarcinoma cell line (doxorubicin-resistant); experiment: MTT assay, cytotoxicity at pH 6 and 7
Protocol: as §1, §2, §3, §4

[3] = system: E. coli 32313 (resistant); experiment: Antibacterial assay, MIC in 96-well plates at different pH
Source text: (§5) The antibacterial effect was studied in two Gram-positive and in two Gram-negative strains. The Gram-positive S. aureus ATCC 25923 (ATCC, Manassas, VA, USA) is a methicillin-susceptible reference bacterial strain, while S. aureus 272123 is a clinical isolate and resistant to methicillin and ofloxacin (MRSA), which was given by Prof. Dr. Leonard Amaral (Institute of Hygiene and Tropical Medicine, Lisbon, Portugal). The Gram-negative strains were E. coli ATCC 25922 (ATCC, Manassas, VA, USA), which is sensitive to antibiotics, and E. coli 32313 (provided by the Institute of Clinical Microbiology, University of Szeged, Hungary), which is resistant to different antibiotics (trimethoprim/sulfamethoxazole, gentamicin, ciprofloxacin, and norfloxacin).
(§6) The minimum inhibitory concentrations (MICs) of the compounds were determined in 96-well plates based on the Clinical and Laboratory Standard Institute guidelines. The compounds were diluted in 100 μL of Mueller Hinton broth. Then, an overnight bacterial culture diluted 10,000 times in 100 μL of medium was added to each well, with the exception of the medium control wells. For each strain and each tested compound, four pH values were set (5, 6, 7, and 8). Each sample was triplicated.

[4] = system: E. coli ATCC 25922 (sensitive); experiment: as above
Source text: as §5, §6

S. aureus 272123 (MRSA) = experiment: as above
Source text: as §5, §6

[5] = system: S. aureus ATCC 25923 (methicillin-susceptible); experiment: as above
Source text: as §5, §6

[6] = Colo205, pH 6, 72 h incubation, read-out: IC50
[7] = Colo205, pH 7, 72 h incubation, read-out: IC50
[8] = Colo320, pH 6, 72 h incubation, read-out: IC50
[9] = Colo320, pH 7, 72 h incubation, read-out: IC50
[10] = Escherichia coli, ATCC25922, 24 h, pH 5
[11] = Escherichia coli, ATCC25922, 24 h, pH 6
[12] = Escherichia coli, ATCC25922, 24 h, pH 7
[13] = Escherichia coli, ATCC25922, 24 h, pH 8
[14] = Staphylococcus aureus, 24 h, pH 5
[15] = Staphylococcus aureus, 24 h, pH 6
[16] = Staphylococcus aureus, 24 h, pH 7
[17] = Staphylococcus aureus, 24 h, pH 8
[18] = Staphylococcus aureus, ATCC25923, 24 h, pH 7
[19] = Staphylococcus aureus, ATCC25923, 24 h, pH 8

**Q.** How did the IC50 ([1]; Colo205, pH 6, 72 h incubation, listed as [RhCp*(8HQH−1)(H2O)]^+ with econazole, read-out: IC50) turn out when `Cc1c(C)c(C)[c-](C)c1C.Clc1ccc(COC(Cn2ccnc2)c2ccc(Cl)cc2Cl)cc1.[Cl-].[Rh+2][O]c1cccc2cccnc12` (racemic) [[RhCp*(8HQH−1)Cl] +econ] was run?
**A.** ~1.8 µM

**Q.** What about the IC50 [1, 6] of the same molecule?
**A.** 1.8 ± 0.1 µM

**Q.** What about the IC50 [1, 7] of the same molecule?
**A.** 3.3 ± 0.1 µM

**Q.** And the IC50 [2, 8]?
**A.** 4.52 ± 0.04 µM

**Q.** And the IC50 [2, 9]?
**A.** 3 ± 0.1 µM

**Q.** And the MIC ([3]; E. coli resistant, pH 5, after one day, read-out: MIC)?
**A.** 50 µM

**Q.** What about the MIC ([3]; E. coli resistant, pH 6, after one day, read-out: MIC) of the same molecule?
**A.** >100 µM

**Q.** And the MIC ([3]; E. coli resistant, pH 7, after one day, read-out: MIC)?
**A.** >100 µM

**Q.** And the MIC ([3]; E. coli resistant, pH 8, after one day, read-out: MIC)?
**A.** 50 µM

**Q.** And the MIC ([4]; E. coli sensitive, pH 5, after one day, read-out: MIC)?
**A.** 25 µM

**Q.** What about the MIC ([4]; E. coli sensitive, pH 6, after one day, read-out: MIC) of the same molecule?
**A.** 25 µM

**Q.** What about the MIC ([4]; E. coli sensitive, pH 7, after one day, read-out: MIC) of the same molecule?
**A.** 25 µM

**Q.** What about the MIC ([4]; E. coli sensitive, pH 8, after one day, read-out: MIC) of the same molecule?
**A.** 25 µM

**Q.** What about the MIC (S. aureus 272123 (MRSA); pH 5, after one day, read-out: MIC) of the same molecule?
**A.** 12.5 µM

**Q.** And the MIC (S. aureus 272123 (MRSA); pH 6, after one day, read-out: MIC)?
**A.** 6.25 µM

**Q.** What about the MIC (S. aureus 272123 (MRSA); pH 7, after one day, read-out: MIC) of the same molecule?
**A.** 3.125 µM

**Q.** And the MIC (S. aureus 272123 (MRSA); pH 8, after one day, read-out: MIC)?
**A.** 3.125 µM

**Q.** And the MIC ([5]; S. aureus sensitive, pH 7, after one day, read-out: MIC)?
**A.** 0.39 µM

**Q.** And the MIC ([5]; S. aureus sensitive, pH 8, after one day, read-out: MIC)?
**A.** 0.39 µM

**Q.** How did the MIC ([3]; Escherichia coli, 24 h, pH 5) turn out when `Oc1cccc2cccnc12` [Complex 8HQ, 8-hydroxyquinoline, reference compound] was run?
**A.** > 100 µM

**Q.** And the MIC ([3]; Escherichia coli, 24 h, pH 6)?
**A.** > 100 µM

**Q.** And the MIC ([3]; Escherichia coli, 24 h, pH 7)?
**A.** > 100 µM

**Q.** And the MIC ([3]; Escherichia coli, 24 h, pH 8)?
**A.** > 100 µM

**Q.** What about the MIC [4, 10] of the same molecule?
**A.** > 100 µM

**Q.** What about the MIC [4, 11] of the same molecule?
**A.** > 100 µM

**Q.** What about the MIC [4, 12] of the same molecule?
**A.** > 100 µM

**Q.** And the MIC [4, 13]?
**A.** > 100 µM

**Q.** What about the MIC (S. aureus 272123 (MRSA); [14]) of the same molecule?
**A.** 100 µM

**Q.** And the MIC (S. aureus 272123 (MRSA); [15])?
**A.** 6.25 µM

**Q.** What about the MIC (S. aureus 272123 (MRSA); [16]) of the same molecule?
**A.** 6.25 µM

**Q.** And the MIC (S. aureus 272123 (MRSA); [17])?
**A.** 6.25 µM

**Q.** And the MIC [5, 18]?
**A.** 25 µM

**Q.** And the MIC [5, 19]?
**A.** 25 µM

**Q.** With `c1ccncc1` [Py, pyridine, reference compound] as the molecule, how does the IC50 ([1]; Homo sapiens, COLO 205, 72 h, pH 6) read?
**A.** > 100 µM

**Q.** What about the IC50 ([1]; Homo sapiens, COLO 205, 72 h, pH 7) of the same molecule?
**A.** > 100 µM

**Q.** And the IC50 ([2]; Homo sapiens, COLO 320, 72 h, pH 6)?
**A.** > 100 µM

**Q.** What about the IC50 ([2]; Homo sapiens, COLO 320, 72 h, pH 7) of the same molecule?
**A.** > 100 µM

**Q.** What about the MIC ([3]; Escherichia coli, 24 h, pH 5) of the same molecule?
**A.** > 100 µM

**Q.** What about the MIC ([3]; Escherichia coli, 24 h, pH 6) of the same molecule?
**A.** > 100 µM

**Q.** What about the MIC ([3]; Escherichia coli, 24 h, pH 7) of the same molecule?
**A.** > 100 µM

**Q.** What about the MIC ([3]; Escherichia coli, 24 h, pH 8) of the same molecule?
**A.** > 100 µM

**Q.** What about the MIC ([3]; Escherichia coli, read-out: MIC (no antibacterial effect)) of the same molecule?
**A.** > 100 µM

**Q.** What about the MIC [4, 10] of the same molecule?
**A.** > 100 µM

**Q.** And the MIC [4, 11]?
**A.** > 100 µM

**Q.** And the MIC [4, 12]?
**A.** > 100 µM

**Q.** What about the MIC [4, 13] of the same molecule?
**A.** > 100 µM

**Q.** And the MIC ([4]; Escherichia coli, ATCC25922, read-out: MIC (no antibacterial effect))?
**A.** > 100 µM

**Q.** What about the MIC (S. aureus 272123 (MRSA); [14]) of the same molecule?
**A.** > 100 µM

**Q.** And the MIC (S. aureus 272123 (MRSA); [15])?
**A.** > 100 µM

**Q.** What about the MIC (S. aureus 272123 (MRSA); [16]) of the same molecule?
**A.** > 100 µM

**Q.** And the MIC (S. aureus 272123 (MRSA); [17])?
**A.** > 100 µM

**Q.** And the MIC (S. aureus 272123 (MRSA); Staphylococcus aureus, read-out: MIC (no antibacterial effect))?
**A.** > 100 µM

**Q.** And the MIC [5, 18]?
**A.** > 100 µM

**Q.** And the MIC [5, 19]?
**A.** > 100 µM

**Q.** And the MIC ([5]; Staphylococcus aureus, ATCC25923, read-out: MIC (no antibacterial effect))?
**A.** > 100 µM

**Q.** How did the IC50 [1, 6] turn out when `CC1=C(C)C(C)C(C)=C1C.Cn1ccnc1.Oc1cccc2cccnc12.[Rh+3]` [[RhCp*(8HQH−1)(mim)]^+] was run?
**A.** 7 ± 0.4 µM

**Q.** And the IC50 [1, 7]?
**A.** 7.2 ± 0.2 µM

**Q.** And the IC50 [2, 8]?
**A.** 6 ± 0.1 µM

**Q.** What about the IC50 [2, 9] of the same molecule?
**A.** 6.1 ± 0.2 µM

**Q.** Which results are given for `CC1=C(C)C(C)C(C)=C1C.[Rh+3].c1ccncc1.c1cnc2c(c1)ccc1cccnc12` [[RhCp*(phen)(Py)]^2+]?
**A.** IC50 [1, 6]: > 100 µM; IC50 [1, 7]: > 100 µM; IC50 [2, 8]: 83.6 ± 4.1 µM; IC50 [2, 9]: > 100 µM
